The text below walks through data of patent US20040007689A1, “Process for controlling the hydrate mix of a compound” (Pfizer Inc., priority 2002, published 2004).

The nature of series [1]: Water content of freeze-dried DSFF product. Format: physicochemical. The conditions noted are these: DSFF subjected to a typical freeze-drying process.
Series [2] in a line: Chemical and thermal stability of DSFF hydration forms and hydrate mixes. Format: physicochemical. The conditions noted are these: for stability of hydration form (chemical / thermal): hydration forms of DSFF, solid state.

For `O=P([O-])([O-])OC(Cn1cncn1)(Cn1cncn1)c1ccc(F)cc1F.[Na+].[Na+]` [DSFF, disodium salt of fosfluconazole], in series [1], the “water content of product of typical freeze-drying process” value is “about 1.2 % w/w”. The “stability of product of typical freeze-drying process” value in series [2] (DSFF after typical freeze-drying with secondary drying, water content about 1.2% w/w (below monohydrate stoichiometry)) was “chemically unstable and degrades”.
As to `O.O.O.O=P([O-])([O-])OC(Cn1cncn1)(Cn1cncn1)c1ccc(F)cc1F.[Na+].[Na+]` [trihydrate, DSFF Trihydrate], the “stability of hydration form (chemical / thermal)” value in series [2] was “chemically and thermally stable”.
On the same count and under the same terms, for `O.O.O.O.O.O.O=P([O-])([O-])OC(Cn1cncn1)(Cn1cncn1)c1ccc(F)cc1F.[Na+].[Na+]` [hexahydrate, DSFF Hexahydrate] the value was “chemically and thermally stable”.
